Reference: publication PMC9200803, “Design, synthesis, and biological evaluation of tetrahydroquinolinones and tetrahydroquinolines with anticancer activity” (Scientific Reports, 2022)

Key:
MCF-7 cells = test: MTT cell viability assay, MCF-7; format: cell-based, human; details: IC50 ± SD
Procedure: (§1) To evaluate the effects of the newly synthesized tetrahydroquinolin-2(1H)-one derivatives on cell viability, we treated human colon cancer cells HCT-116, human breast cancer cells MCF-7, and human non-small cell lung cancer cells A-549 with different concentrations of the compounds for 72 h. After incubation, the MTT (3-(4,5-dimethylthiazol-2-yl)-2,5-diphenyltetrazolium bromide) assay was performed and the cytotoxic potency of compounds (expressed in IC50) on the cells was determined in comparison to control cells treated with 1% of dimethyl sulfoxide (DMSO) (Table 1). […] We also compared the activity of 20d and 19b to the reference control drug Cisplatin, which is widely used in chemotherapy.
(§2) A-549 (CCL-185) and MCF-7 ([…]) cells were cultured in RPMI-1640 medium, while HCT-116 (CVCL-427), (hMLH1)-deficient (MMR^–) and hMLH1-proficient (MMR^+) RKO cells were cultured in McCoy’s 5A medium. The culture media were supplemented with 10% fetal bovine serum, 2 mM L-glutamine, and antibiotics (penicillin 62.6 µg/ml and streptomycin 40 µg/ml). Cultivation of cell lines was carried out at 37 °C under a humidified atmosphere containing 5% CO2, and the cultures were routinely screened for Mycoplasma contamination. A-549, MCF-7, and HCT-116 cells were obtained from American Type Culture Collection (ATCC), while RKO colon carcinoma cells were a kind gift of Dr Timothy Kinsella (Brown University, USA).
(§3) The viability of cells was determined in response to the newly synthesized compounds using the MTT (Sigma-Aldrich) assay. Briefly, cells were seeded into 96-well plates and allowed to attach overnight. Then, cells were exposed to various concentrations of compounds for 24, 48 or 72 h. Negative controls were treated with the same amount of DMSO solvent (1%). After treatment, the MTT solution (0.4 mg/ml) was added to each well and allowed to react with cells for 2–3 h at 37 °C. Next, the medium was removed, the formazan product formed was dissolved in 100 μl of DMSO, and the absorbance was determined at 540 nm using an ASYS UVM340 microplate reader (Biochrom Ltd.). The IC50 value, which represents the concentration of the compound required to inhibit cell growth by 50% compared to vehicle, was calculated using GraphPad Prism 8 software based on the curves plotting survival against dose averaged from at least three independent experiments.

HCT-116 cells = test: MTT cell viability assay, HCT-116; format: cell-based, human; details: 72 h; for cytotoxicity on tested cell lines: HCT-116, MCF-7, A-549, concentrations up to 50 µM; for IC50: MTT, IC50 ± SD
Procedure: as §1, §2, §3

HEK293 cells = test: MTT cell viability assay, HEK293; format: cell-based, human
A-549 cells = test: MTT cell viability assay, A-549; format: cell-based, human; details: MTT, 72 h, IC50 ± SD
Procedure: as §1, §2, §3

[1] = Homo sapiens, HEK293, IC50 ± SD

Row | Compound | IC50 (MCF-7 cells; Homo sapiens, MCF7, 72 h) [µM] | cytotoxicity on tested cell lines (HCT-116 cells) | IC50 (HCT-116 cells; Homo sapiens, HCT-116, 72 h) [µM] | melting point [°C] | IC50 (HEK293 cells; [1]) [µM] | IC50 (A-549 cells; Homo sapiens, A549) [µM] | IC50 (HCT-116 cells) [µM] | IC50 (MCF-7 cells; 72 h) [µM] | IC50 (HEK293 cells; IC50 ± SD) [µM] | IC50 (A-549 cells) [µM]
1 | O=c1cc(-c2ccccc2)c2c([nH]1)C(O)CCC2 (stereo not shown) [Compound 24, 8-hydroxy-4-phenyl-5,6,7,8-tetrahydro-1H-quinolin-2-one] | > 50 | no cytotoxicity | > 50 | 104 to 106 | > 50 | > 50 | – | – | – | –
2 | O=C(Nc1ccc(Cl)cc1)OC1CCCc2c(-c3ccccc3)cc(=O)[nH]c21 (stereo not shown) [Compound 20e, (2-oxo-4-phenyl-5,6,7,8-tetrahydroquinolin-8-yl) N-(4-chlorophenyl)carbamate] | > 50 | no cytotoxicity | > 50 | – | > 50 | > 50 | – | – | – | –
3 | O=C(Nc1ccc(F)cc1)OC1CCCc2c(-c3ccccc3)cc(=O)[nH]c21 (stereo not shown) [Compound 20c, (2-oxo-4-phenyl-5,6,7,8-tetrahydroquinolin-8-yl) N-(4-fluorophenyl)carbamate] | > 50 | – | 18.4 ± 2.04 | – | > 50 | 23.8 ± 4.02 | – | – | – | –
4 | O=C1CCCc2c(-c3ccccc3)cc(Cl)nc21 [Compound 21, 2-chloro-4-phenyl-6,7-dihydro-5H-quinolin-8-one] | > 50 | no cytotoxicity | > 50 | 135 to 137 | > 50 | > 50 | – | – | – | –
5 | O=C(Nc1ccccc1)OC1CCCc2c(-c3ccccc3)cc(Cl)nc21 (stereo not shown) [Compound 18a, (2-chloro-4-phenyl-5,6,7,8-tetrahydroquinolin-8-yl) N-phenylcarbamate] | > 50 | – | 39.8 ± 2.62 | 148 to 150 | > 50 | 27.2 ± 1.53 | – | – | – | –
6 | O=C(Nc1ccc(F)cc1)OC1CCCc2c(-c3ccccc3)cc(Cl)nc21 (stereo not shown) [Compound 18c, (2-chloro-4-phenyl-5,6,7,8-tetrahydroquinolin-8-yl) N-(4-fluorophenyl)carbamate] | > 50 | – | 18.9 ± 1.26 | 113 to 115 | > 50 | 23.8 ± 4.02 | – | – | – | –
7 | O=C(Nc1ccccc1)OC1CCCc2c(-c3ccccc3)cc(=O)[nH]c21 (stereo not shown) [Compound 20a, (2-oxo-4-phenyl-5,6,7,8-tetrahydroquinolin-8-yl) N-phenylcarbamate] | > 50 | – | ~13 | 144 to 146 | > 50 | 21.8 ± 0.22 | 13.1 ± 1.55 | – | – | –
8 | O=C(Nc1cccc(F)c1)OC1CCCc2c(-c3ccccc3)cc(Cl)nc21 (stereo not shown) [Compound 18d, (2-chloro-4-phenyl-5,6,7,8-tetrahydroquinolin-8-yl) N-(3-fluorophenyl)carbamate] | > 50 | no cytotoxicity | > 50 | – | > 50 | > 50 | – | – | – | –
9 | COc1cc(-c2ccccc2)c2c(n1)C(OC(=O)Nc1ccc(Cl)cc1)CCC2 (stereo not shown) [Compound 19e, (2-methoxy-4-phenyl-5,6,7,8-tetrahydroquinolin-8-yl) N-(4-chlorophenyl)carbamate] | > 50 | – | ~13 | 144 to 146 | > 50 | > 50 | 13.9 ± 1.3 | – | – | –
10 | OC1CCCc2c(-c3ccccc3)cc(Cl)nc21 (stereo not shown) [Compound 16, 2-chloro-4-phenyl-5,6,7,8-tetrahydroquinolin-8-ol] | > 50 | no cytotoxicity | > 50 | 88 to 90 | > 50 | > 50 | – | – | – | –
11 | COc1cc(-c2ccccc2)c2c(n1)C(=O)CCC2 [Compound 22, 2-methoxy-4-phenyl-6,7-dihydro-5H-quinolin-8-one] | > 50 | no cytotoxicity | > 50 | 127 to 129 | > 50 | > 50 | – | – | – | –
12 | O=c1cc(-c2ccccc2)c2c([nH]1)CCCC2 [Compound 9, 4-phenyl-5,6,7,8-tetrahydro-1H-quinolin-2-one] | > 50 | no cytotoxicity | > 50 | – | > 50 | > 50 | – | – | – | –
13 | COc1cc(-c2ccccc2)c2c(n1)C(OC(=O)Nc1cccc(F)c1)CCC2 (stereo not shown) [Compound 19d, (2-methoxy-4-phenyl-5,6,7,8-tetrahydroquinolin-8-yl) N-(3-fluorophenyl)carbamate] | > 50 | – | 31.6 ± 0.58 | – | > 50 | 41.1 ± 0.93 | – | – | – | –
14 | O=C(Nc1ccc([N+](=O)[O-])cc1)OC1CCCc2c(-c3ccccc3)cc(Cl)nc21 (stereo not shown) [Compound 18b, (2-chloro-4-phenyl-5,6,7,8-tetrahydroquinolin-8-yl) N-(4-nitrophenyl)carbamate] | > 50 | no cytotoxicity | > 50 | – | > 50 | > 50 | – | – | – | –
15 | O=C1CCCc2c(-c3ccccc3)cc(=O)[nH]c21 [Compound 23, 4-phenyl-1,5,6,7-tetrahydroquinoline-2,8-dione] | > 50 | no cytotoxicity | > 50 | 182 to 184 | > 50 | > 50 | – | – | – | –
16 | COc1cc(-c2ccccc2)c2c(n1)C(OC(=O)Nc1ccc(F)cc1)CCC2 (stereo not shown) [Compound 19c, (2-methoxy-4-phenyl-5,6,7,8-tetrahydroquinolin-8-yl) N-(4-fluorophenyl)carbamate] | > 50 | – | ~13 | 125 to 127 | > 50 | 28.4 ± 0.56 | 13 ± 2.68 | – | – | –
17 | O=C(Nc1ccc(Cl)cc1)OC1CCCc2c(-c3ccccc3)cc(Cl)nc21 (stereo not shown) [Compound 18e, (2-chloro-4-phenyl-5,6,7,8-tetrahydroquinolin-8-yl) N-(4-chlorophenyl)carbamate] | > 50 | – | > 50 | – | > 50 | 45.3 ± 4.2 | – | – | – | –
18 | COc1cc(-c2ccccc2)c2c(n1)C(O)CCC2 (stereo not shown) [Compound 17, 2-methoxy-4-phenyl-5,6,7,8-tetrahydroquinolin-8-ol] | > 50 | no cytotoxicity | > 50 | 61 to 63 | > 50 | > 50 | – | – | – | –
19 | N.N.[Cl][Pt][Cl] [Cisplatin, reference compound] | – | – | – | – | – | – | 24.9 ± 1.14 | 33.8 ± 1.56 | 28.4 ± 1.97 | 29.01 ± 0.12
20 | O=C(Nc1ccc([N+](=O)[O-])cc1)OC1CCCc2c(-c3ccccc3)cc(=O)[nH]c21 (stereo not shown) [Compound 20b, (2-oxo-4-phenyl-5,6,7,8-tetrahydroquinolin-8-yl) N-(4-nitrophenyl)carbamate] | > 50 | – | > 50 | 225 to 227 | > 50 | > 50 | – | – | – | –
21 | COc1cc(-c2ccccc2)c2c(n1)C(OC(=O)Nc1ccccc1)CCC2 (stereo not shown) [Compound 19a, (2-methoxy-4-phenyl-5,6,7,8-tetrahydroquinolin-8-yl) N-phenylcarbamate] | > 50 | – | 26.2 ± 1.69 | – | > 50 | > 50 | – | – | – | –
